From paper PMC7525318, “Identification of Six Flavonoids as Novel Cellular Antioxidants and Their Structure-Activity Relationship” (Oxidative Medicine and Cellular Longevity, 2020)
Read-outs that look alike come from different tables or passages of the source.

Experiments:
[1] = DPPH radical scavenging activity; settings: 0.1 mM DPPH in methanol, 37°C, 30 min
Experimental: This assay was conducted as previously described by Wen et al. with some modifications. DPPH was freshly prepared in methanol at a concentration of 0.1 mM. The solution (20 μL) containing the tested compounds with different concentrations was added into the DPPH solution (180 μL) in the 96-well plates. […] The IC50 value was calculated on the scavenging activity against DPPH radical.

[2] = Oxygen radical antioxidant capacity (ORAC) assay; settings: Trolox equivalents; AAPH, fluorescein
Experimental: The ORAC assay was evaluated as previously described by Cao et al. with some modifications. 50 μL of samples or Trolox with different concentrations and the fluorescein solution was added to a 96-well microplate, which was incubated at 37°C for 10 min. […] The ORAC values were calculated by the regression equation between the Trolox concentration and the net area under the curve (expressed as μmol Trolox eq/μmol sample).

HepG2 cells [3] = test: Cellular antioxidant activity (CAA) assay; type: cell-based; settings: Homo sapiens, DCFH-DA 25 μM, ABAP 600 μM
Experimental: The CAA assay was tested as described previously. 6 × 10^4 cells/well of HepG2 cells were seeded at a 96-well microplate with 100 μL of growth medium/well. […] Then, the cells were washed with PBS and treated with 100 μL of 600 μM ABAP (dissolved in HBSS), and the 96-well microplate was immediately placed into an Infinite SpectraMax i3x Multi-Mode Detection plate-reader at 37°C. […]

[4] = system: superoxide dismutase (SOD); test: Intracellular SOD activity in ABAP-treated HepG2 cells; type: cell-based; settings: then ABAP
Experimental: (§1) HepG2 cells were seeded (1 × 10^6 cells/well) in six-well plates. After incubation for 24 h, the cells were pretreated with different concentration samples. Medium was washed by PBS and treated with 600 μM ABAP. The cells were collected and treated with cell lysis buffer (20 mM Tris at pH 7.5, 150 mM NaCl and 1% Triton X-100) at 4°C. The lysed cells were used to measure the intracellular activities of SOD, CAT, and GSH-Px by kits according to the manufacturer instructions (Wen 2015). Cells without sample and ABAP treatment were used as positive control (PC), while cells treated with ABAP but not sample were used as negative control (NC).

catalase (CAT) = test: Intracellular CAT activity in ABAP-treated HepG2 cells; type: cell-based; settings: for CAT activity of PC value: then ABAP, % of PC value
Experimental: as §1

[5] = system: glutathione peroxidase (GSH-Px); test: Intracellular GSH-Px activity in ABAP-treated HepG2 cells; type: cell-based; settings: for GSH-Px activity of PC value: then ABAP, % of PC value
Experimental: as §1

HepG2 cells [6] = test: Cytotoxicity assay (CCK-8); type: cell-based; settings: range of 10-160 μM
Experimental: (§2) The cytotoxicity and antiproliferative activity assays were performed by using the CCK-8 assay kit. Briefly, HepG2 cells were cultured at a density of 4 × 10^4 cells/well or 2.5 × 10^4 cells/well in a 96-well microplate with growth medium. After incubation at 37°C, the growth medium is treated with 100 μL of growth medium containing different concentrations of tested compounds for 24 h or 72 h. The wells having growth medium without the tested compound served as control. Then, the cells were incubated with 10 μL/well CCK-8 solutions for 2 h at 37°C. The absorbance values of each well were measured at 450 nm using a microplate reader (SpectraMax i3x, ForteBio Analytics Co., Ltd., USA). The cytotoxic activity and antiproliferative effects of the tested compound was calculated as(1) Cytotoxicity %=1−As/Ac×100%, (2) Cell proliferation %=As/Ac×100%, where As is the absorbance of the well with compound; Ac is the absorbance of control.

HepG2 cells [7] = test: Antiproliferative activity assay (CCK-8); type: cell-based
Experimental: as §2

[8] = HepG2, pretreatment before ABAP

IC50 [1]: > 200 µM
EC50 (HepG2 cells [3]): 19.5 ± 1.48 µM
IC50 (HepG2 cells [7]; Homo sapiens): 90.7 ± 2.45 µM
SMILES: COc1c(-c2ccc(O)c(O)c2)oc2cc(O)cc(O)c2c1=O [compound 5, 3-O-methylquercetin]
ORAC values [2]: 4.71 ± 0.12 μmol TE/μmol
SOD activity compared to NC cells ([4]; HepG2, pretreated at a higher concentration): significant increase
SOD activity compared to NC cells ([4]; HepG2, pretreated with 15 μM): insignificant increase
CAT activity of PC value (catalase (CAT); HepG2, pretreated with 15 μM): 49.55 ± 3.21%
CAT activity of PC value (catalase (CAT); HepG2, pretreated with 30 μM): 69.34 ± 5.15%
CAT activity of PC value (catalase (CAT); HepG2, pretreated with 45 μM): 80.67 ± 7.13%
increase of CAT activity (catalase (CAT); [8]): dose-dependent manner
GSH-Px activity of PC value ([5]; HepG2, pretreated with 15 μM): 59.74 ± 3.23%
GSH-Px activity of PC value ([5]; HepG2, pretreated with 30 μM): 69.08 ± 4.27%
GSH-Px activity of PC value ([5]; HepG2, pretreated with 45 μM): 83.44 ± 4.18%
increase of GSH-Px activity [5, 8]: dose-dependent manner
cytotoxicity (HepG2 cells [6]): no significant effects
cytotoxicity revealed by the cell proliferative assay (HepG2 cells [7]): slightly cytotoxicity
cytotoxicity revealed by the cell proliferative assay (HepG2 cells [7]; listed as 3-O-methylquercetin): low cytotoxicity
